Reference: US20230340011A1 (Asteroid Therapeutics, priority 2022, published 2023)

How the values were obtained:
LXRβ = LXRβ (Homo sapiens (Human), UniProt P55055); experiment: In vitro assay LXRβ: PathHunter NHR CHO cells, LXRβ / Steroid Receptor Co-activator Peptide enzyme fragment complementation; assay type: cell-based; details: PathHunter NHR CHO cells, full-length human LXRβ and SRCP, chemiluminescent signal; read-out: LXRβ PPI
Outline: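 Co-activator recruitment measured by chemiluminescence after signal generation. The CHO line carries full-length human LXRβ tagged with ProLink and an SRCP–enzyme acceptor fusion in the nucleus; cells sat overnight at 37° C before testing, in charcoal-dextran filtered serum medium with 1% final vehicle.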

SREBP-2 = SREBP-2 (Homo sapiens (Human), UniProt Q12772); experiment: In vitro assay SREBP-2: PathHunter U2OS SREBP-2 Nuclear Translocation Cell Line, U18666A-stimulated; assay type: cell-based; details: PathHunter U2OS SREBP-2 nuclear translocation cells, U18666A 10 μM, overnight (16 hours)

Sequence of LXRβ (P55055 whole entry, the tested form may be a part): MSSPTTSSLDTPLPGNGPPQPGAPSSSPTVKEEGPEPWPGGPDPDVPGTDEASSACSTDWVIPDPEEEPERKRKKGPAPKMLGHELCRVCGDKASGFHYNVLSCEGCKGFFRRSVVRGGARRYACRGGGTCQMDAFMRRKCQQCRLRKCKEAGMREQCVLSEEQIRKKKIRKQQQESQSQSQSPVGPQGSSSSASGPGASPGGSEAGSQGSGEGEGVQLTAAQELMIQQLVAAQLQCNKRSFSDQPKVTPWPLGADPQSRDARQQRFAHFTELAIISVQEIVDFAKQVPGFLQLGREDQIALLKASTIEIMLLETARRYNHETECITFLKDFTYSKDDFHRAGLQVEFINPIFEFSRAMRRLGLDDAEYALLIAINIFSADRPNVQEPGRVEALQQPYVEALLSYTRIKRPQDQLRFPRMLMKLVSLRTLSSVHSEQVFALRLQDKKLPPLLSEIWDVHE

SMILES	EC50 (LXRβ) [nM]	IC50 (SREBP-2) [nM]
C[C@H](CCC(=O)N1CCC(O)(C2CC2)CC1)[C@H]1CC[C@H]2[C@@H]3CC=C4C[C@@H](O)CC[C@]4(C)[C@H]3CC[C@]12C [Example 193, (R)-1-(4-cyclopropyl-4-hydroxypiperidin-1-yl)-4-((3S,8S,9S,10R,13R,14S,17R)-3-hydroxy-10,13-dimethyl-2,3,4,7,8,9,10,11,12,13,14,15,16,17-tetradecahydro-1H-cyclopenta[a]phenanthren-17-yl)pentan-1-one]	< 250	< 250
C[C@H](CCC(=O)N1CCC[C@H]1C)[C@H]1CC[C@H]2[C@@H]3CC=C4C[C@@H](O)CC[C@]4(C)[C@H]3CC[C@]12C [Example 113, (R)-4-((3S,8S,9S,10R,13R,14S,17R)-3-hydroxy-10,13-dimethyl-2,3,4,7,8,9,10,11,12,13,14,15,16,17-tetradecahydro-1H-cyclopenta[a]phenanthren-17-yl)-1-((R)-2-methylpyrrolidin-1-yl)pentan-1-one]	250 to 1000	< 250
C[C@H](CCc1ncns1)[C@H]1CC[C@H]2[C@@H]3CC=C4C[C@@H](O)CC[C@]4(C)[C@H]3CC[C@]12C [Example 174, (1R,3aS,3bS,7S,9aR,9bS,11aR)-9a,11a-dimethyl-1-[(2R)-4-(1,2,4-thiadiazol-5-yl)butan-2-yl]-1H,2H,3H,3aH,3bH,4H,6H,7H,8H,9H,9aH,9bH,10H,11H,11aH-cyclopenta[a]phenanthren-7-ol]	250 to 1000	250 to 1000
CC(=O)N1CCCN(C(=O)CC[C@@H](C)[C@H]2CC[C@H]3[C@@H]4CC=C5C[C@@H](O)CC[C@]5(C)[C@H]4CC[C@]23C)CC1 [Example 317, (R)-1-(4-acetyl-1,4-diazepan-1-yl)-4-((3S,8S,9S,10R,13R,14S,17R)-3-hydroxy-10,13-dimethyl-2,3,4,7,8,9,10,11,12,13,14,15,16,17-tetradecahydro-1H-cyclopenta[a]phenanthren-17-yl)pentan-1-one]	> 10000	< 250
C[C@H](CCC(=O)N1CCN(C(=O)NC2CC2)CC1)[C@H]1CC[C@H]2[C@@H]3CC=C4C[C@@H](O)CC[C@]4(C)[C@H]3CC[C@]12C [Example 338, 4-[(4R)-4-[(1R,3aS,3bS,7S,9aR,9bS,11aR)-7-hydroxy-9a,11a-dimethyl-1H,2H,3H,3aH,3bH,4H,6H,7H,8H,9H,9aH,9bH,10H,11H,11aH-cyclopenta[a]phenanthren-1-yl]pentanoyl]-N-cyclopropylpiperazine-1-carboxamide]	> 10000	< 250
COC(=O)N1CCC12CN(C(=O)CC[C@@H](C)[C@H]1CC[C@H]3[C@@H]4CC=C5C[C@@H](O)CC[C@]5(C)[C@H]4CC[C@]13C)C2 [Example 552, methyl6-((R)-4-((3S,8S,9S,10R,13R,14S,17R)-3-hydroxy-10,13-dimethyl-2,3,4,7,8,9,10,11,12,13,14,15,16,17-tetradecahydro-1H-cyclopenta[a]phenanthren-17-yl)pentanoyl)-1,6-diazaspiro[3.3]heptane-1-carboxylate]	> 10000	1000 to 10000
C[C@H](CCc1cccc(F)n1)[C@H]1CC[C@H]2[C@@H]3CC=C4C[C@@H](O)CC[C@]4(C)[C@H]3CC[C@]12C [Example 161, (3S,8S,9S,10R,13R,14S,17R)-17-((R)-4-(6-fluoropyridin-2-yl)butan-2-yl)-10,13-dimethyl-2,3,4,7,8,9,10,11,12,13,14,15,16,17-tetradecahydro-1H-cyclopenta[a]phenanthren-3-ol]	1000 to 10000	< 250
Cc1ncccc1O[C@@H](C)[C@H]1CC[C@H]2[C@@H]3CC=C4C[C@@H](O)CC[C@]4(C)[C@H]3CC[C@]12C [Example 274, (1S,3aS,3bS,7S,9aR,9bS,11aS)-9a,11a-dimethyl-1-[(1S)-1-[(2-methylpyridin-3-yl)oxy]ethyl]-1H,2H,3H,3aH,3bH,4H,6H,7H,8H,9H,9aH,9bH,10H,11H,11aH-cyclopenta[a]phenanthren-7-ol]	> 10000	250 to 1000
Cc1cncc(N2CCN(C(=O)CC[C@@H](C)[C@H]3CC[C@H]4[C@@H]5CC=C6C[C@@H](O)CC[C@]6(C)[C@H]5CC[C@]34C)CC2)c1 [Example 661, (R)-4-((3S,8S,9S,10R,13R,14S,17R)-3-hydroxy-10,13-dimethyl-2,3,4,7,8,9,10,11,12,13,14,15,16,17-tetradecahydro-1H-cyclopenta[a]phenanthren-17-yl)-1-(4-(5-methylpyridin-3-yl)piperazin-1-yl)pentan-1-one]	> 10000	< 250
C[C@H](CCC(=O)N1CCN(c2ccnc(O)n2)CC1)[C@H]1CC[C@H]2[C@@H]3CC=C4C[C@@H](O)CC[C@]4(C)[C@H]3CC[C@]12C [Example 559, (R)-4-((3S,8S,9S,10R,13R,14S,17R)-3-hydroxy-10,13-dimethyl-2,3,4,7,8,9,10,11,12,13,14,15,16,17-tetradecahydro-1H-cyclopenta[a]phenanthren-17-yl)-1-(4-(2-hydroxypyrimidin-4-yl)piperazin-1-yl)pentan-1-one]	> 10000	< 250
C[C@H](CCC(=O)N1CCN(C(=O)c2cnn(C)c2)CC1)[C@H]1CC[C@H]2[C@@H]3CC=C4C[C@@H](O)CC[C@]4(C)[C@H]3CC[C@]12C [Example 309, (4R)-4-[(1R,3aS,3bS,7S,9aR,9bS,11aR)-7-hydroxy-9a,11a-dimethyl-1H,2H,3H,3aH,3bH,4H,6H,7H,8H,9H,9aH,9bH,10H,11H,11aH-cyclopenta[a]phenanthren-1-yl]-1-[4-(1-methyl-1H-pyrazole-4-carbonyl)piperazin-1-yl]pentan-1-one]	> 10000	< 250
CCC1(O)CCN(C(=O)OC[C@@H](C)[C@H]2CC[C@H]3[C@@H]4CC=C5C[C@@H](O)CC[C@]5(C)[C@H]4CC[C@]23C)CC1 [Example 348, (S)-2-((3S,8S,9S,10R,13S,14S,17R)-3-hydroxy-10,13-dimethyl-2,3,4,7,8,9,10,11,12,13,14,15,16,17-tetradecahydro-1H-cyclopenta [a]phenanthren-17-yl)propyl 4-ethyl-4-hydroxypiperidine-1-carboxylate]	> 10000	< 250
C[C@H](CCc1ncccc1CO)[C@H]1CC[C@H]2[C@@H]3CC=C4C[C@@H](O)CC[C@]4(C)[C@H]3CC[C@]12C [Example 454, (3S,8S,9S,10R,13R,14S,17R)-17-((R)-4-(3-(hydroxymethyl)pyridin-2-yl)butan-2-yl)-10,13-dimethyl-2,3,4,7,8,9,10,11,12,13,14,15,16,17-tetradecahydro-1H-cyclopenta[a]phenanthren-3-ol]	< 250	< 250
C[C@H](COC(=O)N1CCN(c2ccncc2)CC1)[C@H]1CC[C@H]2[C@@H]3CC=C4C[C@@H](O)CC[C@]4(C)[C@H]3CC[C@]12C [Example 597, (2S)-2-[(1R,3aS,3bS,7S,9aR,9bS,11aS)-7-hydroxy-9a,11a-dimethyl-1H,2H,3H,3aH,3bH,4H,6H,7H,8H,9H,9aH,9bH,10H,11H,11aH-cyclopenta[a]phenanthren-1-yl]propyl 4-(pyridin-4-yl)piperazine-1-carboxylate]	> 10000	< 250
CC[C@]1(O)CC[C@@]2(C)C(=CC[C@H]3[C@@H]4CC[C@H]([C@H](C)CCC(=O)N5CCN(C(=O)OC)CC5)[C@@]4(C)CC[C@@H]32)C1 [Example 284, methyl 4-[(4R)-4-[(1R,3aS,3bS,7S,9aR,9bS,11aR)-7-ethyl-7-hydroxy-9a,11a-dimethyl-1H,2H,3H,3aH,3bH,4H,6H,7H,8H,9H,9aH,9bH,10H,11H,11aH-cyclopenta[a]phenanthren-1-yl]pentanoyl]piperazine-1-carboxylate]	> 10000	1000 to 10000
C[C@H](CCC(=O)N(C)C1CCN(C(=O)N(C)C)CC1)[C@H]1CC[C@H]2[C@@H]3CC=C4C[C@@H](O)CC[C@]4(C)[C@H]3CC[C@]12C [Example 644, 4-((R)-4-((3S,8S,9S,10R,13R,14S,17R)-3-hydroxy-10,13-dimethyl-2,3,4,7,8,9,10,11,12,13,14,15,16,17-tetradecahydro-1H-cyclopenta[a]phenanthren-17-yl)-N-methylpentanamido)-N,N-dimethylpiperidine-1-carboxamide]	> 10000	< 250
Cc1noc(C(=O)N2CCN(C(=O)CC[C@@H](C)[C@H]3CC[C@H]4[C@@H]5CC=C6C[C@@H](O)CC[C@]6(C)[C@H]5CC[C@]34C)CC2)n1 [Example 292, (R)-4-((3S,8S,9S,10R,13R,14S,17R)-3-hydroxy-10,13-dimethyl-2,3,4,7,8,9,10,11,12,13,14,15,16,17-tetradecahydro-1H-cyclopenta[a]phenanthren-17-yl)-1-(4-(3-methyl-1,2,4-oxadiazole-5-carbonyl)piperazin-1-yl)pentan-1-one]	> 10000	< 250
COc1ncc(OC)c(N2CCN(C(=O)CC[C@@H](C)[C@H]3CC[C@H]4[C@@H]5CC=C6C[C@@H](O)CC[C@]6(C)[C@H]5CC[C@]34C)CC2)n1 [Example 617, (R)-1-(4-(2,5-dimethoxypyrimidin-4-yl)piperazin-1-yl)-4-((3S,8S,9S,10R,13R,14S,17R)-3-hydroxy-10,13-dimethyl-2,3,4,7,8,9,10,11,12,13,14,15,16,17-tetradecahydro-1H-cyclopenta[a]phenanthren-17-yl)pentan-1-one]	> 10000	< 250
C[C@H](Oc1ccncc1)[C@H]1CC[C@H]2[C@@H]3CC=C4C[C@@H](O)CC[C@]4(C)[C@H]3CC[C@]12C [Example 379, (1S,3aS,3bS,7S,9aR,9bS,11aS)-9a,11a-dimethyl-1-[(1S)-1-(pyridin-4-yloxy)ethyl]-1H,2H,3H,3aH,3bH,4H,6H,7H,8H,9H,9aH,9bH,10H,11H,11aH-cyclopenta[a]phenanthren-7-ol]	> 10000	250 to 1000
